8 molecules from PubChem BioAssay (NCI) can be followed below.

Several values for one entry are separate records, joined by “and”; a condition that tells them apart may be missing. Equal values may be shown once.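 Grown in 96-well plates, cells were treated for 48 hours with each compound at five concentrations. Insufficient inhibition: endpoint recorded as highest concentration tested. GI50 = concentration required for 50% inhibition of growth. TGI: total growth inhibition.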

Common to all, as to test: NCI anticancer screen, dose series, 48 h
Test [1] relates to RXF 393 renal.
Test [2] concerns HOP-62 NSCLC.
Test [3] concerns NCI/ADR-RES ovarian.
Test [4] relates to SF-539 CNS.
In test [5] the test system is NCI-H522 lung.
For test [6], the system named is OVCAR-4 ovarian.
In test [7] the test system is A549 NSCLC.
In test [8] the test system is LOX IMVI melanoma.
Test [9] concerns TK-10 renal.
Test [10] relates to 786-0 renal.

With `CCOC(=O)CCc1cc(=O)oc2cc(O)cc(O)c12`, the TGI in test [1], in test [2], in test [3], in test [4], in test [5] and in test [6] was over 100 µM in each case. Also, the TGI in [7], in test [8], in test [9] and in [10] was over 100 µM throughout.
For `O=C1c2c(c3c4ccccc4n(CCCCCCBr)c3c3[nH]c4ccccc4c23)C(=O)N1O`, the GI50 was 3.32 µM in test [1]; 2.52 µM in [2]; 2.49 µM in test [3]; 1.78 µM in test [4]; 3.45 µM in [6]; 3.31 µM in test [7]. Besides, the GI50 in [9] was 3.13 µM; in test [10], 2.09 µM. Besides, the TGI in test [1] turned out to be 14.5 µM; in test [2], 9.06 µM; in test [3], 7.8 µM; in [4], 3.77 µM; in [6], 23.4 µM; in [7], 12.1 µM. Also, the TGI in test [9] came to 11.7 µM; in test [10] it was 5.81 µM.
Take `Cc1ccc(S(=O)(=O)N(CCOc2ccc(/C(N)=N/Cl)cc2)CCOc2ccc(/C(N)=N\Cl)cc2)cc1`: the GI50 in test [2] was 12 µM; in test [3], over 100 µM; in test [4] it was 11 µM; in test [5], 13.3 µM; in [6], 16.7 µM; in test [7], 4.88 µM. The GI50 in test [8] was 16.7 µM; in [9], 40 µM; in test [10], 34.6 µM. Besides, the TGI was 33.2 µM in test [2]; over 100 µM in [3]; 27.2 µM in test [4]; 76.4 µM in test [5]; over 100 µM in test [6]; over 100 µM in test [7]. The TGI in test [8], in test [9] and in test [10] was over 100 µM in each case.
As for `COC(=O)c1cc2c3ccccc3[nH]c2c2ncccc12`, the GI50 in [1] was over 100 µM; in test [2], 68.9 µM; in test [3] it was 56.2 µM; in test [4] it was 17.4 µM; in test [5] it was 86 µM; in test [6], 57.3 µM. The GI50 was 75.1 µM in test [7], 9.46 µM in test [8], 12 µM in test [9] and 61.2 µM in test [10]. In addition, the TGI in [1], in [2], in test [3], in test [4], in test [5] and in test [6] was over 100 µM in each case. For the same molecule, the TGI in test [7], in [8], in test [9] and in test [10] was over 100 µM throughout.
Regarding `CCOC(=O)/C=C(/C(=O)OCC)n1cc(Cl)c(=O)n(CC(=O)OCC)c1=O`, the GI50 is 0.298 µM in [1]; 30.8 µM in [2]; 16.9 µM in test [4]; 34.2 µM in test [6]; 23.4 µM in [7]; 15.2 µM in [8]. In addition, the GI50 in test [9] is 11.5 µM; in test [10], 2.78 µM. Moreover, the TGI in test [1] was 8.55 µM and 2.59 µM; in test [2] it was 25 µM and 91.3 µM; in test [3], 25 µM and 97.7 µM; in test [4], 9.69 µM and 32.7 µM; in test [5] it was 2.88 µM; in [6] it was 14 µM and > 100 µM. The TGI was 18.1 µM and 67 µM in [7]; 8.17 µM and 34.5 µM in [8]; 8.29 µM and 23.8 µM in [9]; 2.48 µM and 7.5 µM in [10].
Turning to `CSc1ccc(C2=NN(C(C)=O)C(c3cc(C)cs3)C2)cc1` (stereo not drawn), the GI50 in test [1] is 56.7 µM; in test [2] it was 37.3 µM; in [3], 24.5 µM; in test [4] it was 39.8 µM; in [5], 17.9 µM; in test [6], 18 µM. The GI50 was 27.2 µM in test [7], 24.2 µM in test [8], 26.9 µM in [9] and 40 µM in test [10]. The TGI is over 100 µM in test [1]; over 100 µM in [2]; over 100 µM in test [3]; over 100 µM in test [4]; 74.9 µM in test [5]; over 100 µM in test [6]. Also, the TGI in test [7], in test [8], in test [9] and in [10] was over 100 µM in each case.
For the molecule `COc1ccc2c(c1)c(-c1nc(-c3cn(C)c4ncccc34)cs1)cn2CCCN1CCCCC1`, the GI50 in test [1] is 1.68 µM; in test [3], 1.76 µM; in test [4] it was 1.75 µM; in test [5] it was 1.68 µM; in [6], 1.87 µM; in [7], 1.87 µM. Also, the GI50 in test [8] is 1.65 µM; in test [9], 1.64 µM; in [10] it was 1.59 µM. In addition, the TGI in [1] was 3.29 µM; in test [3], 3.46 µM; in test [4] it was 3.22 µM; in [5], 3.37 µM; in test [6], 4.64 µM; in test [7], 3.46 µM. In addition, the results for the TGI in test [8], in test [9] and in test [10] were 3.09 µM, 3.1 µM and 2.95 µM, respectively.
`Cc1ccc(-c2c3c([nH]c(=O)c2C#N)-c2cc(F)ccc2OC3)cc1`: the GI50 in test [1] is over 100 µM; in test [3], over 100 µM; in [4] it was over 100 µM; in test [5], 19 µM; in test [6] it was over 100 µM; in test [7] it was 55 µM. Moreover, the GI50 in test [8] is over 100 µM; in test [9] it was 29.4 µM; in test [10], 64.4 µM. Besides, the TGI in [1] was over 100 µM; in test [3], over 100 µM; in test [4] it was over 100 µM; in test [5], 59.2 µM; in test [6] it was over 100 µM; in test [7] it was over 100 µM. Moreover, the TGI in [8] is over 100 µM; in test [9] it was 80.9 µM; in test [10], over 100 µM.
